Laboratory results as given in patent US20070015733A1, “Aryl Phosphate Derivatives of d4T having Activity Against Resistant HIV Strains” (Parker Hughes Institute, priority 1998, published 2007).
Like-named read-outs stand apart in the source and are kept apart here.

How the values were obtained:
HIV-1 (strain: HTLVIIIB) = assay: microbe, parasite or virus in culture; type: cell-based; details: PBMNC, read-out: PBMNC IC50 [RT]
Method: (§1) Percent inhibition of viral replication was calculated by comparing the p24 and RT activity values from the test substance-treated infected cells with those from untreated infected cells. In parallel, the cytotoxicity of the compounds was examined using a microculture tetrazolium assay (MTA) of cell proliferation, as described.in the Zarling, Enrice, and Uckun articles Supra).
(§2) Cellular Assays of Anti-HIV Activity and Cytotoxicity. […] Percent viral inhibition was calculated by comparing the RT activity values from the test substance-treated infected cells with RT values from untreated infected cells (i.e., virus controls).

[1] = test system: HIV-1 (HTLVIIIB) in TK-deficient CEM T-cells; assay: Inhibition of HIV-1 replication in TK-deficient CEM T-cells (p24 / RT activity); type: cell-based; details: TK-deficient CEM T-cells, read-out: CEM IC50 [RT]
Method: as §1, §2

[2] = test system: NRTI-resistant recombinant HIV-1 isolates; details: cited from earlier work
[3] = test system: NRTI-resistant recombinant HIV-1 isolates; assay: Documented fold decreased susceptibility of recombinant HIV-1 clones; type: cell-based; details: for mean reduction in susceptibility: mean over 6 recombinant clones; for median reduction in susceptibility: median over 6 recombinant clones
[4] = test system: NRTI-resistant recombinant HIV-1 isolates; assay: p24 assay, multi-NRTI-resistant recombinant HIV-1 clones; type: cell-based
[5] = test system: NRTI-resistant recombinant HIV-1 isolates; assay: RT activity assay, multi-NRTI-resistant recombinant HIV-1 clones; type: cell-based
HIV-1 HTLVIIIB = assay: microbe, parasite or virus in culture; details: Human immunodeficiency virus 1, PBMC
Method: In vitro assays of anti-HIV-1 activity. Normal human peripheral blood mononuclear cells (PBMNC) from HIV-negative donors were cultured 72 hours in RPMI 1640 supplemented with 20% (v/v) heat-inactivated fetal bovine serum (FBS), 3% interleukin-2, 2 mM L-glutamine, 25 mM HEPES, 2 g/L NaHCO3, […], and […] prior to exposure to HIV-1 at a multiplicity of infection (MOI) of 0.1 during a 1 hour adsorption period at 37° C. in a humidified 5% CO2 atmosphere. Subsequently, cells were cultured in 96-well microtiter plates ([…]; 2×10^6 cells/mL) in the presence of various concentrations of d4T phosphoramidates and aliquots of culture supernatants were removed from the wells on the 7th day after infection for p24 antigen assays, as previously described (Uckun et al., 1998, Antimicrobial Agents and Chem., 42(2):383-388). The applied p24 enzyme immunoassay (EIA) was the unmodified kinetic assay commercially available from Coulter Corporation/Immunotech, Inc. (Westbrooke, Me.), which utilizes a murine mAb to HIV core protein coated onto microwell strips to which the antigen present in the test culture supernatant samples binds. Percent viral inhibition was calculated by comparing the p24 values from untreated infected cells (i.e., virus controls).
The anti-HIV activity of the compounds was examined by evaluating their ability to inhibit HIV replication in peripheral blood mononuclear cells using previously described procedures (Uckun et al., 1998, Antimicrobial Agents and Chem., 42(2):383-388). Percent inhibition of viral replication was calculated by comparing the p24 antigen levels from the test substance-treated infected cells with those from vehicle-treated infected cells.
Antiviral susceptibility assays. Phenotypic drug susceptibility studies of HIV-1 isolates and strains were performed by measuring the production of the p24 gag protein in peripheral blood mononuclear cells (PBMC) from seronegative healthy volunteers in the presence of increasing concentrations of the anti-HIV agent using the quantitative Coulter HIV-1 p24 antigen ezyme immunoassay (EIA) and HIV-1 p24 Antigen Kinetic Standard (Beckman Coulter), as previously described (Uckun, 1998, Antimicrobial Agents and Chemotherapy 37(4): 835-38). Informed consent was obtained from the blood donors according to DHHS guidelines using consent forms approved by the Institutional Review Board. In brief, PBMC were cultured for 72 h in RPMI 1640 medium (Gibco) supplemented with 20% (vol/vol) heat-inactivated fetal bovine serum, 5% human interleukin-2 (Zeptometrix), 2 mM L-glutamine, 25 mM HEPES, 2 g/L NaHCO3, 100 U/ml penicillin/streptomycin (Gibco), 50 μg/ml gentamicin (Gibco), and 5 μg/ml phytohemagglutinin-P (PHA-P) (Sigma) for 24-72 hours prior to exposure to HIV at a multiplicity of infection of 0.001-0.1 during a 1-h adsorbtion period at 37±1° C. in a humidified 5-7% CO2 atmosphere. Subsequently, cells were cultured in 96-well microtiter plates (100 μl/well; 2×10^6 cells/ml, triplicate wells) in the presence of the anti-HIV agents at 6-7 different concentrations ranging from 0.0001 μM to 100 μM, and 25 μL aliquots of culture supernatants were removed from the wells on day 6 after infection for p24 EIA, as previously described (Uckun, 1998, Antimicrobial Agents and Chemotherapy, 37(4):835-38). Controls included uninfected and untreated cells (background control) and infected but untreated (virus control) cells. The p24 EIA utilizes a murine monoclonal antibody to HIV core protein used to coat microwell strips to which the antigen present in the test culture supernatant samples binds. Percent inhibition of viral replication was calculated by comparing the p24 values from the test substance-treated infected cells with p24 values from untreated infected cells (i.e., virus controls). The IC50 values were determined using the Statview statistics program (SAS Institute, Inc.).

[6] = unit not given in Table 5 (0.04 = 40 nM)
[7] = Human immunodeficiency virus 1, read-out: IC50 (nM), p24, recombinant clone 1617-1 (151 complex)
[8] = Human immunodeficiency virus 1, read-out: IC50 (nM), p24, recombinant clone 4755-5
[9] = Human immunodeficiency virus 1, read-out: IC50 (nM), p24, recombinant clone 7295-1
[10] = Human immunodeficiency virus 1, read-out: IC50 (nM), p24, recombinant clone 7324-1
[11] = Human immunodeficiency virus 1, read-out: IC50 (nM), p24, recombinant clone 52252-1 in Table 18, 56252-1 in Tables 19 and 20 (K65R, 151 complex)
[12] = Human immunodeficiency virus 1, read-out: IC50 (nM), p24, recombinant clone printed 52534-1 in Table 18, 52534-2 in Tables 19 and 20 (69 insertion complex)
[13] = Human immunodeficiency virus 1, read-out: IC50 (nM), RT, recombinant clone 1617-1
[14] = Human immunodeficiency virus 1, read-out: IC50 (nM), RT, recombinant clone 4755-5
[15] = Human immunodeficiency virus 1, read-out: IC50 (nM), RT, recombinant clone 7295-1
[16] = Human immunodeficiency virus 1, read-out: IC50 (nM), RT, recombinant clone 7324-1
[17] = Human immunodeficiency virus 1, read-out: IC50 (nM), RT, recombinant clone 52534-2
[18] = Human immunodeficiency virus 1, read-out: IC50 (nM), RT, recombinant clone 56252-1
[19] = Human immunodeficiency virus 1, read-out: mean IC50, RT, mean over 6 multi-NRTI-resistant clones

3dT-5′-(para-bromophenyl methoxyalaninyl phosphate) [Compound 2d]
IC50 (HIV-1 (strain: HTLVIIIB); Table 4): 1.2 µM
IC50 (HIV-1 (strain: HTLVIIIB); [6]): 1.2 µM
IC50 ([1]; Table 4): 22.8 µM
IC50 ([1]; Table 5): 22.8 µM

COC(=O)C(C)NP(=O)(OCC1CCC(n2cc(C)c(=O)[nH]c2=O)O1)Oc1ccc(F)cc1 (mixture of isomers) [Compound 2c]
IC50 (HIV-1 (strain: HTLVIIIB); Table 4): 3.1 µM
IC50 ([1]; Table 4): 32.7 µM

COC(=O)C(C)NP(=O)(OCC1CCC(n2cc(C)c(=O)[nH]c2=O)O1)Oc1ccc([N+](=O)[O-])cc1 (mixture of isomers) [Compound 2e]
IC50 (HIV-1 (strain: HTLVIIIB); Table 4): 2 µM
IC50 ([1]; Table 4): 22.6 µM

COC(=O)[C@H](C)NP(=O)(OC[C@@H]1CC[C@H](n2cc(C)c(=O)[nH]c2=O)O1)Oc1ccccc1 (stereo partly drawn) [Compound 2a]
IC50 (HIV-1 (strain: HTLVIIIB); Table 4): 2.1 µM
IC50 (HIV-1 (strain: HTLVIIIB); [6]): 2.1 µM
IC50 ([1]; Table 4): 7.5 µM
IC50 ([1]; Table 5): 7.5 µM

Cc1cn([C@H]2CC[C@@H](CO)O2)c(=O)[nH]c1=O [Compound 3dT, 3′-deoxythymidine]
IC50 (HIV-1 (strain: HTLVIIIB); Human immunodeficiency virus 1, Table 4): 0.7 µM
IC50 ([1]; Human immunodeficiency virus 1, T-cell, Table 4): 91.2 µM
IC50 ([1]; Human immunodeficiency virus 1, T-cell, Table 5): 91.2 µM

COC(=O)C(C)NP(=O)(OCC1OC(n2cc(C)c(=O)[nH]c2=O)CC1N=[N+]=[N-])Oc1ccccc1 (stereo not drawn) [Compound 5a]
IC50 ([1]; Table 5): 1.7 µM

COC(=O)C(C)NP(=O)(OCC1OC(n2cc(C)c(=O)[nH]c2=O)CC1N=[N+]=[N-])Oc1ccc(OC)cc1 (stereo not drawn) [Compound 5b]
IC50 (HIV-1 (strain: HTLVIIIB); [6]): 0.1 µM
IC50 ([1]; Table 5): 4.1 µM

Nc1nc(NC2CC2)c2ncn([C@H]3C=C[C@@H](CO)C3)c2n1 [abacavir]
Fold decreased susceptibility ([2]; recombinant clone 1617-1): >100 fold
Fold decreased susceptibility ([2]; recombinant clone 4755-5): 7.7 fold
Fold decreased susceptibility ([2]; recombinant clone 7295-1): 6.1 fold
Fold decreased susceptibility ([2]; recombinant clone 7324-1): 4.2 fold
Fold decreased susceptibility ([2]; recombinant clone 52534-2): 22 fold
Fold decreased susceptibility ([2]; recombinant clone 56252-1): >100 fold
mean reduction in susceptibility [3]: 40 fold
median reduction in susceptibility [3]: 14.9 fold

O=c1[nH]cnc2c1ncn2[C@H]1CC[C@@H](CO)O1 [didanosine]
Fold decreased susceptibility ([2]; recombinant clone 1617-1): 23 fold
Fold decreased susceptibility ([2]; recombinant clone 4755-5): 2.4 fold
Fold decreased susceptibility ([2]; recombinant clone 7295-1): 1.9 fold
Fold decreased susceptibility ([2]; recombinant clone 7324-1): 1.7 fold
Fold decreased susceptibility ([2]; recombinant clone 52534-2): 3.3 fold
Fold decreased susceptibility ([2]; recombinant clone 56252-1): 28 fold
mean reduction in susceptibility [3]: 10.1 fold
median reduction in susceptibility [3]: 2.9 fold

CC(C)(C)NC(=O)[C@@H]1CN(Cc2cccnc2)CCN1C[C@@H](O)C[C@@H](Cc1ccccc1)C(=O)N[C@H]1c2ccccc2C[C@H]1O [indinavir]
IC50 [4, 7]: 20.5 nM
IC50 [4, 8]: 9.4 nM
IC50 [4, 9]: 17.2 nM
IC50 [4, 10]: 21.8 nM
IC50 [4, 11]: 9 nM
IC50 [4, 12]: 36.5 nM
IC50 [5, 13]: 5.2 nM
IC50 [5, 14]: 4.8 nM
IC50 [5, 15]: 1.4 nM
IC50 [5, 16]: 5.7 nM
IC50 [5, 17]: 12.2 nM
IC50 [5, 18]: 3.7 nM
IC50 [5, 19]: 5.5 ± 1.5 nM

Nc1ccn([C@@H]2CS[C@H](CO)O2)c(=O)n1 [lamivudine]
IC50 [4, 7]: > 10000 nM
IC50 [4, 8]: > 10000 nM
IC50 [4, 9]: > 10000 nM
IC50 [4, 10]: 800 nM
IC50 [4, 11]: > 10000 nM
IC50 [4, 12]: > 10000 nM
IC50 (HIV-1 HTLVIIIB): 0.04 ± 0.025 µM
IC90 (HIV-1 HTLVIIIB): 1.82 ± 0.747 µM
IC50 [5, 13]: > 10000 nM
IC50 [5, 14]: > 10000 nM
IC50 [5, 15]: > 10000 nM
IC50 [5, 16]: 634 nM
IC50 [5, 17]: > 10000 nM
IC50 [5, 18]: 7210 nM
IC50 [5, 19]: 7970 ± 1540 nM
mean reduction in susceptibility [3]: 215.5 fold
median reduction in susceptibility [3]: 300 fold

C[C@H](Cn1cnc2c(N)ncnc21)OCP(=O)(O)O [tenofovir]
Fold decreased susceptibility ([2]; recombinant clone 1617-1): 2.4 fold
Fold decreased susceptibility ([2]; recombinant clone 4755-5): 2.3 fold
Fold decreased susceptibility ([2]; recombinant clone 7295-1): 1.1 fold
Fold decreased susceptibility ([2]; recombinant clone 7324-1): 8.1 fold
Fold decreased susceptibility ([2]; recombinant clone 52534-2): 4.2 fold
Fold decreased susceptibility ([2]; recombinant clone 56252-1): 11 fold
mean reduction in susceptibility [3]: 4.9 fold
median reduction in susceptibility [3]: 3.3 fold
